In patent US20050037446A1, “Agents that recognize src when phosphorylated at serine 17” (priority 2001, published 2005):

Test system: Rap1
Assay: Rap1 activation assay in Src++ and SYF fibroblasts
Type: cell-based, mouse
Description: The Rap1 activation affinity assay was performed as follows. A GST fusion protein of the Rap1-binding domain of RalGDS (GST-RalGDS, Dr. Bos, Utrecht University, The Netherlands) was expressed in E. coli following induction by isopropyl-1thio-β-D-galactopyranoside. Active Rap1 was isolated as previously described (Franke et al., EMBO J. 16:252-9, 1997). Briefly, equivalent amounts of supernatants (500 μg) were incubated with GST-RalGDS-Rap1 binding domain coupled to glutathione beads. Following a one hour incubation at 4° C., beads were pelleted and rinsed threes times with ice-cold lysis buffer. The protein was eluted from the beads using 2× Laemmli buffer and applied to a 12% SDS-polyacrylamide gel. […] Proteins were detected using enhanced chemiluminescence. […]
Following selection, SYF cells were left untreated or stimulated with Forskolin in the presence or absence of H89 or PP2. Cells were lysed in ice-cold lysis buffer and the lysates analyzed by Western blot for phosphorylation of myc-ERK2 as described above. […]
SYF cells were co-transfected with Flag-Rap1 and either vector, Flag-Src, or Flag-SrcS 17A and stimulated with Forskolin as described in the above examples. Cell lysates were examined for Rap1 activation using the method described in EXAMPLE 1 or analyzed by Western blot to identify Flag-containing proteins. […]

CC(C)NCC(O)c1ccc(O)c(O)c1 (centres unmarked) [isoproterenol]
Rap1 activation by agonist (SYF cells): absent | Rap1 activation by agonist (Src++ cells): retained
